From patent US20110293672A1, “PANCREATIC TUMOUR TREATMENT” (BIOCOMPATIBLES UK LIMITED, priority 2008, published 2011)
Values after ≈ are worked out from the molar mass of the structure shown. Like-named read-outs stand apart in the source and are kept apart here.

How the values were obtained:
advanced pancreas cancer = conditions: single agent, patients with advanced pancreas cancer; cited from earlier work
[1] = test system: PSN1 (Human Pancreatic Carcinoma) Cell Line; experiment: MTS cytotoxicity of irinotecan and topotecan solutions on PSN1 cells; assay type: cell-based; conditions: for IC50: read-out: Estimated IC50 conc.
Experimental: 20,000 PSN1 cells were seeded in 96 well plates and left to adhere to the well surface overnight. The drug solutions underwent serial dilutions from 1000 μg/ml to 1×10^−8 μg/ml in cell culture media. […] After 24, 48 and 72 hrs, the cells were washed (×3) with PBS and 100 μl media was added. The MTS assay was conducted by adding 20 μl MTS solution to each well and incubating (37° C., 5% CO2) for 2 hrs. The absorbance of each well at 490 nm was determined using a Biotek plate reader.

Row | Structure (SMILES) | Median survival (advanced pancreas cancer) [months] | Concentration at which a reduction in cell viability began ([1]; 24 hrs exposure) [µg/mL] | Concentration at which a reduction in cell viability began ([1]; 48 hours) [µg/mL] | Concentration at which an effect on cell viability began ([1]; 72 hours) | Effect on cell viability at lower concentration ([1]; <1 μg/ml, even after 72 hours) | IC50 ([1]; Homo sapiens, 24 hrs exposure) [µg/mL] | IC50 ([1]; Homo sapiens, 48 hrs exposure) [µg/mL] | IC50 ([1]; Homo sapiens, 72 hrs exposure) [µg/mL] | Relative potency in reducing PSN1 cell viability [1] | Concentration needed for a reduction in cell viability below 80% ([1]; 72 hours) [µg/mL] | viability at 0.1 µg/mL ([1]; Homo sapiens, 48 hours, 0.1 μg/ml) [%]
1 | Nc1ccn([C@@H]2O[C@H](CO)[C@@H](O)C2(F)F)c(=O)n1 [gemcitabine] | 5.7 |  |  |  |  |  |  |  |  |  | 
2 | O=c1[nH]cc(F)c(=O)[nH]1 [5-fluorouracil] | 4.4 |  |  |  |  |  |  |  |  |  | 
3 | CCc1c2c(nc3ccc(OC(=O)N4CCC(N5CCCCC5)CC4)cc13)-c1cc3c(c(=O)n1C2)COC(=O)[C@]3(O)CC [Irinotecan, irinotecan] |  | 100 | 10 | around 50 μg/ml | no detrimental effect in cell viability | 100 (≈ 170 µM) | 35 (≈ 59.7 µM) | 30 (≈ 51.1 µM) |  |  | 
4 | CC[C@@]1(O)C(=O)OCc2c1cc1n(c2=O)Cc2cc3c(CN(C)C)c(O)ccc3nc2-1 [Topotecan, topotecan] |  | 1 | 0.1 | 1e-07 µg/mL |  | 600 (≈ 1420 µM) | 0.6 (≈ 1.42 µM) | 0.1 (≈ 0.237 µM) | more potent than irinotecan | 0.01 | ~80
